# Laboratory results reported in the supplement of paper PMC10307832.
# Assays:
# Experiment in all cases: relative viability (nuclei count vs DMSO), 5 days (fraction); higher = more cells survive
# [1] = compound: COc1cc(Nc2c(C#N)cnc3cc(OCCCN4CCN(C)CC4)c(OC)cc23)c(Cl)cc1Cl [Bosutinib]
# Procedure, shortened: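 Lung cancer cell lines were seeded into 1536-well plates, kept overnight at 37 °C and pinned with five library-drug doses (not always all listed) spaced by √10. After 5 days, nuclei were Hoechst-stained, imaged at 4× and counted with MetaXpress. Viability is treated-well nuclei over vehicle-well nuclei, taken as a median across plates. Plates needed control CV below 25% and at least one doubling.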
# [2] = compound: COc1cc(Nc2c(C#N)cnc3cc(OCCCN4CCN(C)CC4)c(OC)cc23)c(Cl)cc1Cl [Bosutinib] + O=C(CCCCCCC(=O)Nc1ccccc1)NO [Vorinostat] (partner 1 µM)
# Procedure, shortened: (§1)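 Relative viability divides the nuclei count in treated wells by that in vehicle wells. Lung cancer cell lines were seeded in 1536-well plates, dosed by pin tool the next day, and fixed and stained after 5 days in one step with final 0.05% Triton X-100, 1% formaldehyde and 1 ug/ml Hoechst. Dosing was a single drug or a fixed anchor-drug dose plus five library-drug doses (not always all listed) in √10 steps, and values are medians of duplicate plates imaged at 4×.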
# [3] = compound: COc1cc(Nc2c(C#N)cnc3cc(OCCCN4CCN(C)CC4)c(OC)cc23)c(Cl)cc1Cl [Bosutinib] + C[C@]1(O)C[C@@H](c2nc(-c3ccc4ccc(-c5ccccc5)nc4c3)c3c(N)nccn32)C1 [Linsitinib] (partner 1 µM)
# Procedure, shortened: as §1
# [4] = compound: COc1cc(Nc2c(C#N)cnc3cc(OCCCN4CCN(C)CC4)c(OC)cc23)c(Cl)cc1Cl [Bosutinib] + CCNC(=O)c1noc(-c2cc(C(C)C)c(O)cc2O)c1-c1ccc(CN2CCOCC2)cc1 [Luminespib] (partner 0.01 µM)
# Procedure, shortened: as §1
# [5] = compound: COc1cc(Nc2c(C#N)cnc3cc(OCCCN4CCN(C)CC4)c(OC)cc23)c(Cl)cc1Cl [Bosutinib] + C[C@@H](Oc1cc(-c2cnn(C3CCNCC3)c2)cnc1N)c1c(Cl)ccc(F)c1Cl [Crizotinib] (partner 1 µM)
# Procedure, shortened: as §1
Cell Line,relative viability ([1]; 0.01 µM),relative viability ([1]; 0.03162 µM),relative viability ([1]; 0.1 µM),relative viability ([1]; 1 µM),relative viability ([2]; first compound 0.01 µM),relative viability ([2]; first compound 0.03162 µM),relative viability ([2]; first compound 0.1 µM),relative viability ([2]; first compound 1 µM),relative viability ([3]; first compound 0.01 µM),relative viability ([3]; first compound 0.03162 µM),relative viability ([3]; first compound 0.1 µM),relative viability ([3]; first compound 1 µM),relative viability ([4]; first compound 0.01 µM),relative viability ([4]; first compound 0.03162 µM),relative viability ([4]; first compound 0.1 µM),relative viability ([4]; first compound 1 µM),relative viability ([5]; first compound 0.01 µM),relative viability ([5]; first compound 0.03162 µM),relative viability ([5]; first compound 0.1 µM),relative viability ([5]; first compound 1 µM)
NCI-H1355,0.999,1.03,1.05,0.931,0.655,0.694,0.708,0.625,0.824,0.792,0.872,0.687,0.752,0.691,0.761,0.566,1.07,1.04,1.12,0.905
NCI-H1437,1.03,0.974,1.02,0.912,0.875,0.793,0.842,0.805,1.06,1.05,0.962,0.781,1.02,1.11,1.1,1.03,0.858,0.922,0.898,0.82
NCI-H1651,0.997,0.966,1.03,0.988,0.548,0.636,0.646,0.569,0.911,1.02,0.939,0.724,0.738,0.942,0.812,0.902,0.783,0.89,0.888,0.773
NCI-H1666,0.988,1.04,0.924,1.02,0.99,0.99,1.12,1.22,0.774,0.774,0.794,0.662,1.02,1.01,0.995,1.1,1.2,0.987,0.916,0.912
NCI-H1734,1.06,1.01,0.965,0.892,0.836,0.86,0.855,0.654,0.88,0.945,0.914,0.706,0.172,0.181,0.217,0.196,0.737,0.656,0.658,0.537
NCI-H1755,1.01,1.09,1.03,0.951,0.809,0.919,0.904,0.731,0.952,1.03,1.02,0.954,0.465,0.454,0.45,0.351,0.804,0.953,0.903,0.688
NCI-H1915,0.989,1.09,1.1,1.01,0.509,0.531,0.578,0.571,1.04,1.1,1.08,1.14,0.768,0.816,0.815,0.64,0.932,0.89,0.98,0.956
NCI-H1944,0.965,0.92,0.913,0.888,0.608,0.577,0.572,0.569,1.18,1.25,1.14,0.809,0.839,0.713,0.777,0.469,1.16,1.07,1.09,0.946
NCI-H1975,0.992,0.958,0.966,0.81,0.654,0.684,0.684,0.673,0.932,0.833,0.952,0.722,0.244,0.252,0.21,0.141,0.926,0.965,1.01,0.849
NCI-H1993,0.977,0.9,0.987,0.936,0.727,0.733,0.654,0.885,0.749,0.759,0.645,0.762,0.688,0.817,0.875,0.887,0.816,0.875,0.686,0.602
NCI-H2009,1.07,1.05,1.06,0.865,0.78,0.809,0.758,0.562,1.18,1.22,1.2,0.886,1.01,1.08,1.06,0.671,1.05,1.07,1.03,0.66
NCI-H2023,1.02,0.943,0.948,0.852,0.617,0.661,0.767,0.396,0.763,0.743,0.62,0.402,0.802,0.852,0.704,0.579,0.538,0.613,0.511,0.366
NCI-H2085,0.969,0.938,0.919,0.928,0.866,0.769,0.788,0.705,0.778,0.865,0.835,1,0.393,0.466,0.492,0.44,0.799,0.685,0.826,0.874
NCI-H2087,1.07,1.04,0.951,1.08,0.777,0.5,0.647,0.697,0.871,1.08,0.779,0.94,0.194,0.154,0.146,0.151,0.905,0.991,0.817,0.908
NCI-H2126,0.972,0.997,0.969,0.994,0.71,0.799,0.858,0.722,0.645,0.717,0.687,0.628,0.848,0.828,0.874,0.725,0.934,1.02,0.987,0.957
NCI-H2228,0.906,0.918,0.989,0.882,0.664,0.442,0.605,0.552,0.821,,0.818,0.496,0.104,0.185,0.167,0.109,0.472,,0.402,0.333
